Patent US12590966B2, “Method for treating cancer” (THE CHILDREN'S MEDICAL CENTER CORPORATION, priority 2019, dated 2026)

Key:
[1] = test system: Jurkat cells
Description: It was then sought to determine whether GSK3α promotes survival in response to starvation of these amino acids. […] It was then asked whether GSK3α promotes the survival of normal cells in response to essential amino acid starvation, using normal human CD34+ hematopoietic progenitors or CCD841 cells derived from normal human intestinal epithelium (38).

[2] = test system: normal human CD34+ hematopoietic progenitors; assay: Survival under essential amino acid starvation; format: cell-based
[3] = test system: CCD841 cells derived from normal human intestinal epithelium; assay: Survival under essential amino acid starvation; format: cell-based
[4] = test system: Jurkat cells; assay: GSK3α body (puncta) formation by confocal immunofluorescence microscopy; format: cell-based, human; conditions: for Formation of GSK3α puncta on addition of amino acid: asparagine depleted cell
Procedure: (§1) FIGS. 4A-4D show asparagine starvation induces phase separation of GSK3α into cytoplasmic bodies (or puncta), but not GSK3b. (FIG. 4A) Confocal immunofluorescence microscopy for GSK3α or the nuclear marker DAPI, in Jurkat cells treated with vehicle or asparaginase (100 U/L) for 48 hours. (FIG. 4B) Confocal immunofluorescence microscopy for GSK3β or the nuclear marker DAPI, in Jurkat cells treated with vehicle or asparaginase (100 U/L) for 48 hours. (FIG. 4C) Number of puncta per 50 cells. (FIG. 4D) Formation of GSK3α bodies is selective to asparaginase, and is not induced by other cellular stressors such as other chemotherapeutics or heat shock. ****, p<0.0001. ns (not significant), p>0.05.
FIGS. 6A and 6B show GSK3α bodies function in the protein ubiquitination-proteasomal degradation pathway in response to asparagine starvation. (FIG. 6A) Jurkat T-ALL cells were treated with vehicle, asparaginase, the GSK3α inhibitor BRD0705, or the combination of asparaginase and BRD0705 (combo). Immunofluorescence microscopy was then performed for GSK3α, K48-linked ubiquitin chains (which mark proteins for proteasomal degradation), or the nuclear marker DAPI. Note that GSK3a can still undergo translocation into GSK3a bodies even if its enzymatic activity is inhibited, but the ability of GSK3a bodies to ubiquitinate proteins is completely dependent on the enzymatic activity of GSK3α. (FIG. 6B) Quantification of the immunofluorescence in 50 cells from each condition. Coloc refers to co-localization of both GSK3α and ubiquitin (ub), as determined by yellow color on the merged confocal image. ****, p<0.0001. ns (not significant), p>0.05.
(§2) To test whether GSK3α undergoes spatial sequestration in response to asparaginase, we applied immunofluorescence using paralog-selective antibodies (FIG. S4).

[5] = test system: Jurkat T-ALL cells; assay: Co-localization of K48-linked ubiquitin with GSK3α bodies by immunofluorescence; format: cell-based, human; conditions: combination with asparaginase
Procedure: (FIG. 6A) Jurkat T-ALL cells were treated with vehicle, asparaginase, the GSK3α inhibitor BRD0705, or the combination of asparaginase and BRD0705 (combo). Immunofluorescence microscopy was then performed for GSK3α, K48-linked ubiquitin chains (which mark proteins for proteasomal degradation), or the nuclear marker DAPI. […] (FIG. 6B) Quantification of the immunofluorescence in 50 cells from each condition. Coloc refers to co-localization of both GSK3α and ubiquitin (ub), as determined by yellow color on the merged confocal image. ****, p<0.0001. ns (not significant), p>0.05.

[6] = test system: Jurkat cells; assay: Proteinase K protection assay of GSK3α; format: cell-based, human; conditions: Jurkat cells permeabilized with digitonin, Western blot
Procedure: Jurkat cells were treated with vehicle, asparaginase (×48 hrs) to induce formation of GSK3α bodies, or Wnt3A to induce GSK3 sequestration in membrane-bound multivesicular bodies (Taelman et al., 2010). Cells were permeabilized, and treated with vehicle or proteinase K to digest free cytoplasmic proteins. Triton is a control that dissolves all membranes.
It was then determined whether GSK3α bodies are membraneless using the proteinase K protection assay. Jurkat cells were treated with vehicle or asparaginase to trigger GSK3α body formation. As a positive control, treatment with Wnt3A was included, which triggers sequestration of GSK3 inside membrane-bound multivesicular endosomes (19). Following cytoplasmic membrane permeabilization with digitonin, cells were treated with proteinase K, and GSK3α protein levels were assessed by Western blot analysis. […] These findings indicate that GSK3α bodies are membraneless.

[7] = test system: Jurkat cells; assay: GSK3β localization by confocal immunofluorescence microscopy; format: cell-based, human; conditions: asparaginase 100 U/L for 48 hours
Procedure: as §1, §2

Molecule | Survival under essential amino acid starvation [2] | Survival under essential amino acid starvation [3] | Formation of GSK3α puncta on addition of amino acid [4] | Accessibility of GSK3α to proteinase K digestion [6] | other results
CC[C@@]1(c2ccccc2)C2=C(CC(C)(C)CC2=O)Nc2[nH]ncc21 [BRD0705] | impaired survival | impaired survival | – | – | Viability in leucine-deficient medium ([1]; leucine-deficient medium): impaired viability; Viability in valine-deficient medium ([1]; valine-deficient medium): impaired viability; Effect on GSK3α biomolecular condensation in response to asparaginase ([4]; Jurkat T-ALL cells, combination with asparaginase): did not block the ability of GSK3α to undergo biomolecular condensation; Accumulation of ubiquitin in GSK3α bodies [5]: did prevent accumulation of ubiquitin in GSK3α bodies
CC[C@]1(c2ccccc2)C2=C(CC(C)(C)CC2=O)Nc2[nH]ncc21 [BRD5648] | had no effect | had no effect | – | – | –
NC(=O)C[C@H](N)C(=O)O [L-Asn, asparagine] | – | – | inhibits the formation of GSK3α puncta | – | –
NC(=O)CC[C@H](N)C(=O)O [L-Glut, glutamine] | – | – | does not | – | –
asparaginase | – | – | – | remained accessible to proteinase K digestion | GSK3β localization after treatment [7]: remained broadly distributed regardless of asparaginase therapy; GSK3α body formation (condensation into cytoplasmic puncta) induced by treatment ([4]; Jurkat cells, asparaginase 100 U/L for 48 hours): triggered its condensation into distinct cytoplasmic puncta
Wnt3A: positive control that triggers sequestration of GSK3 inside membrane-bound multivesicular endosomes (protein, UniProt P56704 19-352, looked up) Protein Wnt-3a: SYPIWWSLAVGPQYSSLGSQPILCASIPGLVPKQLRFCRNYVEIMPSVAEGIKIGIQECQHQFRGRRWNCTTVHDSLAIFGPVLDKATRESAFVHAIASAGVAFAVTRSCAEGTAAICGCSSRHQGSPGKGWKWGGCSEDIEFGGMVSREFADARENRPDARSAMNRHNNEAGRQAIASHMHLKCKCHGLSGSCEVKTCWWSQPDFRAIGDFLKDKYDSASEMVVEKHRESRGWVETLRPRYTYFKVPTERDLVYYEASPNFCEPNPETGSFGTRDRTCNVSSHGIDGCDLLCCGRGHNARAERRREKCRCVFHWCCYVSCQECTRVYDVHTCK | – | – | – | protected from protease digestion | –
